{"source": "patent US12139531B2", "about": "“Compositions and methods useful in promoting milk production” (The Regents of the University of California, priority 2019, dated 2024)", "molecules": {"B1": {"name": "DCC-Ig4: extracellular domain of Deleted in Colorectal Cancer comprising four Ig domains, HA tagged, negative control (protein, listed as Rattus norvegicus)", "chain": "FTSLHFVSEPSDAVTMRGGNVLLNCSAESDRGVPVIKWKKDGLILALGMDDRKQQLPNGSLLIQNILHSRHHKPDEGLYQCEASLGDSGSIISRTAKVMVAGPLRFLSQTESITAFMGDTVLLKCEVIGDPMPTIHWQKNQQDLNPIPGDSRVVVLPSGALQISRLQPGDSGVYRCSARNPASTRTGNEAEVRILSDPGLHRQLYFLQRPSNVIAIEGKDAVLECCVSGYPPPSFTWLRGEEVIQLRSKKYSLLGGSNLLISNVTDDDSGTYTCVVTYKNENISASAELTVLVPPWFLNHPSNLYAYESMDIEFECAVSGKPVPTVNWMKNGDVVIPSDYFQIVGGSNLRILGVVKSDEGFYQCVAENEAGNAQSSAQLI", "modifications": "HA tag", "notes": "extracellular domain of Deleted in Colorectal Cancer comprising four Ig domains, HA tagged, negative control"}, "B2": {"name": "bovine ROBO1-Ig5: bovine ROBO1-Ig5 construct (Bos taurus ROBO1-Ig5, SEQ ID NO: 2) (protein, listed as Bos taurus)", "chain": "MIAEPAHFYLFGLICLCSGSRLRQEDFPPRIVEHPSDLIVSKGEPATLNCKAEGRPTPTIEWYKGGERVETDKDDPRSHRMLLPSGSLFFLRIVHGRKSRPDEGVYVCVARNYLGEAVSHNASLEVAILRDDFRQNPSDVMVAVGEPAVMECQPPRGHPEPTISWKKDGSPLDDKDERITIRGGKLMITYTRKSDAGKYVCVGTNMVGERESEVAELTVLERPSFVKRPSNLAVTVDDSAEFKCEARGDPVPTVRWRKDDGELPKSRYEIRDDHTLKIRKVTAGDMGSYTCVAENMVGKAEASATLTVQVGSEPPHFVVKPRDQVVALGRTVTFQCEATGNPQPAIFWRREGSQNLLFSYQPPQSSSRFSVSQTGDLTITNVQRSDVGYYICQTLNVAGSIITKAYLEVTDVIADRPPPVIRQGPVNQTVAVDGTLVLSCVATGSPVPTILWRKDGVLVSTQDSRIKQLETGVLQIRYAKLGDTGRYTCIASTPSGEATWSAYIEVQEF"}}, "key": {"HC11 cells [1]": {"tested_on": "HC11 cells", "assay": "HC11 dome assay (milk dome formation on differentiation in DIP media)", "type": "cell-based, mouse", "conditions": "for dome formation in response to a titration of ECD fragments: HC11 cells, increasing ECD concentration", "protocol": "To investigate ROBO1 function during alveologenesis, Robo1 gene expression was inhibited in HC11 cells (Robo1 KD). HC11 cells are a well-established, prolactin-responsive model of lactation,^19,20. Cells in which Robo1 gene expression was not inhibited are referred to as WT or Robo1+/+ herein. To measure milk production, cells were grown to confluence and then primed by treatment with epidermal growth factor (EGF, 10 ng/ml). The EGF is administered for three days in combination with charcoal-stripped fetal bovine serum, followed by one day of charcoal-stripped fetal bovine serum in the absence of EGF. These primed cells are then differentiated by treatment with dexamethasone (1 μg/ml), insulin (5 μg/ml) and prolactin (Prl, 5 μg/ml) media (DIP media) for between 3 and 5 days (FIG. 2A). Differentiation (Dif) results in the development of milk-filled domes (FIG. 2B). […] If the cells were left undifferentiated (Undif), there was little dome formation in either WT or Robo1−/− cells (FIG. 2B). Next, tissue from Robo1 knockout mice (Robo1−/−) and wild type mice (WT or Robo1+/+) mice was analyzed. Mammary glands were harvested from pregnant day 18 WT and Robo1−/− animals and alveologenesis analyzed by serially sectioning, carmine staining and then quantifying the area occupied by alveoli in sections located at top, middle and bottom portions of the tissue.\nDome number formation in response to a titration of ROBO1 ECD fragments was quantified. […] A bovine ROBO1-Ig5 construct was also tested in this assay and, as with the rat constructs, more domes were formed in response to treatment with higher concentrations of […] (FIG. 7H).\n(§1) HC11 cells were grown in RPMI 1640 media (Gibco) supplemented with 10% fetal bovine serum (BioFluid Technologies), 5 μg/mL insulin (Sigma), and 10 ng/ml epidermal growth factor (EGF; Sigma). To induce differentiation in HC11 cells, confluent plates were given fresh media (RPMI 1640 media supplemented with 5% charcoal-stripped fetal bovine serum (BioFluid Technologies), 5 μg/mL insulin, and 10 ng/ml epidermal growth factor (EGF; Sigma) for 3 days followed by 24 hours of priming in priming medium (RPMI 1640 media supplemented with 5% charcoal-stripped fetal bovine serum (BioFluid Technologies), and 5 μg/mL insulin. After priming, DIP medium (RPMI 1640 media supplemented with 5% charcoal-stripped fetal bovine serum (BioFluid Technologies), 10^−6 M dexamethasone (Sigma), 5 μg/mL insulin, and 5 μg/mL prolactin (National Hormone and Peptide program) was added with fresh media every 24 hours."}, "Notch signaling": {"tested_on": "Notch signaling", "assay": "In vivo gamma secretase inhibitor treatment; RT-qPCR on FACS-purified alveolar progenitor cells", "parameters": "species or system mice", "conditions": "GSI-treated vs vehicle-treated", "protocol": "(§2) In further work, Notch signaling was inhibited to attempt to reverse the Robo1−/− phenotype. A γ-inhibitor that has been previously employed successfully in vivo to inhibit Notch in several different organs^26-28, including the mammary gland^29, was selected. Mature virgin animals were treated for […] with 10 mg/kg of the GSI or vehicle control^29 (FIG. 4C). After the treatment, mammary glands were harvested and analyzed by FACS and qPCR. It was observed that Robo1−/− mammary glands contain a higher number of alveolar progenitor cells relative to WT controls (FIG. 4D). […] GSI treatment had no effect on the number of alveolar progenitor cells in WT animals (FIG. 4D).\nRobo1−/− alveolar progenitor cells (AVPs) expressed higher levels of Hey1 and Hes1 with vehicle treatment compared to AVPs from vehicle-treated WT animals (FIG. 4E). […] Vehicle-treated Robo1−/− alveolar progenitor cells (AVPs) expressed lower levels of Elf5 than AVPs from vehicle-treated WT animals (FIG. 4E). This is consistent with the observation of lower levels of ELF5 expression in Robo1−/− compared to Robo1+/+ mammary glands (FIG. 2H), and lower Elf5 in Robo1 knockdown compared to control (Scr) HC11 cells (FIG. 3C). […] In the absence of Robo1, NOTCH4 is activated—an effect that is reversed by either pharmacological inhibition of Notch signaling (FIGS. 4E, 3E, 3F, 3I-K) or knockdown of Notch4 gene expression (FIGS. 3F,G).\n(§3) GSI inhibitor (R04929097; MedchemExpress) was orally administer at 10 mg/kg for 5 days as described^29. Mammary glands were harvest after 5 days of GSI or vehicle treatment and prepared for single cell analysis. Purified populations were collected and processed for RNA. Purified population numbers were analyzed using FlowJo.\n(§4) Total RNA was harvested from cells lysed in TRIzol reagent (Invitrogen) and phase separated according to manufacturer's protocol with an additional overnight RNA precipitation stem in ethanol (Macias et al., 2011). The RNA was further purified with TURBO DNase (Ambion) treatment. Total RNA quality was analyzed by agarose gel electrophoresis and quantified with an ND-1000 spectrophotometer (NanoDrop). cDNA libraries were prepared from 1 μg of total RNA using iScript cDNA synthesis kit (BioRad). Quantitative RT-PCR was performed in triplicates using light Cycler 480 SYBR Green I Master (Roche) and quantified using BioRad CFX'Connect Real-Time System and CFX Manager software (BioRad). Results were normalized to GAPDH."}, "NOTCH4": {"tested_on": "NOTCH4", "assay": "Cell fractionation and Western blot for HES1 and NOTCH4-ICD in HC11 cells", "type": "cell-based, mouse", "conditions": "siR1+GSI, primed/differentiated HC11 cells, nuclear fraction", "protocol": "Notch receptor activation can be regulated through direct interactions with binding partners^24. […] To address this possibility, co-immunoprecipitation experiments were performed using MBA-MD-231 cells lysates, which express detectable levels of all four Notch receptors (NOTCH1-4). Endogenous ROBO1 co-immunoprecipitated with NOTCH4, but not […], NOTCH2 or NOTCH3 (FIG. 3H and data not shown). Next, the expression and subcellular localization of the NOTCH4 intracellular domain (N4-ICD) and HES1 was examined in control (Scr) and Robo1 (siR1) knockdown HC11 cells. Expression of Robo1 was inhibited in HC11 cells that were then primed for differentiation as described above. […] This effect was not observed in control Robo1 knockdown cells engineered to overexpress Robo1 (siR1+o/e) or cells treated with the γ-secretase inhibitor GSI (siR1+GSI) (FIGS. 3I-3K).\nTo examine the effects of ROBO1-ECD fragments on Notch signaling, HC11 cells were treated with ROBO1-ECD fragments and Notch effector expression assessed. […] In addition, HC11 cells were treated with ROBO-Ig5 during differentiation. These cells were then fractionated and a Western blot performed to detect HES1 and NOTCH4-ICD (FIG. 8B).\nProtein lysates were prepared by directly lysing adherent cells in 1× sample buffer supplemented with 5% beta-mercaptoethanol and boiled for 5 minutes. Protein lysate was resolved by SDS-PAGE and transferred to a PVDF for 90 minutes at 400 mA or overnight at 30 mA. Primary antibodies were used at the concentration indicated in Table 1 and incubated overnight at 4° C. HRP conjugated secondary antibodies (Jackson Labs) were used at 1:3000 and incubated for 45 minutes at room temp. All proteins were detected using Clarity ECL (BioRad) using a BioRad Chemi-Doc MP Imager and quantified using ImageLab software as previously described a."}, "Notch": {"tested_on": "Notch", "assay": "In vivo gamma secretase inhibitor treatment; number of FACS-purified alveolar progenitor cells", "parameters": "species or system mice", "conditions": "10 mg/kg GSI orally, mature virgin", "protocol": "as §2\nMechanically dissociated inguinal and thoracic mammary fat pads were prepared into cell suspension for FACS as described^17. AVPs were isolated using FITC-CD14 (clone Sa14-2; BioLegend) and […] (clone 2B8; BioLegend) as described^14.\nas §3"}, "HC11 cells [2]": {"tested_on": "HC11 cells", "assay": "RT-qPCR of milk genes (WAP, Lalba) in differentiated HC11 cells", "type": "cell-based, mouse", "protocol": "To determine whether the promotion of dome formation also results in higher milk production, HC11 cells were differentiated in the presence or absence of ROBO1-ECD fragments that were added to cells simultaneously with DIP media. Cells were harvested and the expression of WAP and Lalba assessed by RT-qPCR. […] WAP expression levels were not increased in cells treated with DCC-Ig4 (FIG. 7K). Next, Western blot analysis of WAP and PLIN2 was performed on cells treated with ROBO1-Ig5 and ROBO1-Ecto.\nas §1\nas §4, with “Results were normalized to GAPDH.” left out"}, "HEK-293 cells": {"tested_on": "HEK-293 cells", "assay": "Dot blot dilution assay of ROBO1-Ig5 secretion into media of transfected HEK-293 cells", "type": "cell-based", "conditions": "heparin 300 ng/ml, media days two, four, six", "source_text": "Three recombinant ROBO1 ECD constructs were constructed: one comprising two immunoglobulin (Ig) domains (ROBO1-Ig2), another comprising all five Ig domains (ROBO1-Ig5), and another comprising the entire extracellular domain (ROBO1-Ecto) (FIG. 6A). In other constructs, HA (hemagglutinin), Myc, and human and mouse immunoglobulin Fc were fused to the Robo1 ECDs (FIG. 6A, 5F right). Extracellular domains of Deleted in Colorectal Cancer (DCC), a structurally similar Ig superfamily member to ROBO1, comprising either two Ig (DCC-Ig2) or four Ig (DCC-Ig4) domains and tagged with HA were constructed for use as negative controls (FIG. 6A, 5F right). Expression secretion of the constructs was confirmed by overexpressing the constructs in HEK293 cells and performing Western blots on cell lysates and media (FIG. 6B). […] Robo1-Ig5 as used herein was expressed in HEK-293 cells in the absence and presence of heparin (300 ng/ml). Media were collected from these ROBO1-Ig5 overexpressing cells on days two, four and six following plasmid transfection. Dot blot dilution assays of the collected media were performed to evaluate the relative secretion of this soluble ROBO1 ECD (FIG. 6C)."}}, "note": "Entries after “also recorded” stand apart in the source; their conditions may differ."}
{"molecule": "CC(C)(C(=O)NCC(F)(F)C(F)(F)F)C(=O)N[C@@H]1C(=O)Nc2ccccc2-c2ccccc21", "note": "[GSI]", "values": [{"measurement": "decreased dome formation in Robo1 knockdown (KD) HC11 cells", "setting": "HC11 cells [1]; Robo1 KD HC11 cells plus GSI", "result": "rescued"}, {"measurement": "Hes1 expression in AVPs", "setting": "Notch signaling; Robo1+/+ animals", "result": "less expression; also recorded: decreased"}, {"measurement": "Hey1 expression in AVPs", "setting": "Notch signaling; Robo1+/+ animals", "result": "less expression; also recorded: decreased"}, {"measurement": "Elf5 expression in AVPs", "setting": "Notch signaling; Robo1-/- animals", "result": "higher; also recorded: rescued"}, {"measurement": "Hes1 expression in AVPs", "setting": "Notch signaling; Robo1-/- animals", "result": "lower; also recorded: rescued"}, {"measurement": "Hey1 expression in AVPs", "setting": "Notch signaling; Robo1-/- animals", "result": "lower; also recorded: rescued"}, {"measurement": "higher nuclear HES1 in Robo1 knockdown cells", "setting": "NOTCH4", "result": "not observed; also recorded: rescues the effect"}, {"measurement": "higher nuclear NOTCH4 intracellular domain (N4-ICD) in Robo1 knockdown cells", "setting": "NOTCH4", "result": "not observed; also recorded: rescues the effect"}, {"measurement": "number of alveolar progenitor cells", "setting": "Notch; Robo1-/- animals", "result": "same number of alveolar progenitor cells as WT animals"}, {"measurement": "number of alveolar progenitor cells", "setting": "Notch; WT animals", "result": "no effect"}, {"measurement": "decreased Lalba expression in Robo1 knockdown (siR1) HC11 cells", "setting": "HC11 cells [2]; siR1+GSI", "result": "rescued"}, {"measurement": "decreased WAP expression in Robo1 knockdown (siR1) HC11 cells", "setting": "HC11 cells [2]; siR1+GSI", "result": "rescued"}]}
{"molecule": "heparin", "values": [{"measurement": "secretion of soluble ROBO1-Ig5", "setting": "HEK-293 cells", "result": "trend of greater secretion"}, {"measurement": "secretion of soluble ROBO1-Ig5", "setting": "HEK-293 cells; listed as Heparin", "result": "modestly increases"}]}
{"molecule": "B1", "values": [{"measurement": "dome formation in response to a titration of ECD fragments", "setting": "HC11 cells [1]", "result": "not observed"}, {"measurement": "WAP gene expression by RT-qPCR", "setting": "HC11 cells [2]; HC11 cells, ECD fragments added simultaneously with DIP media, DCC-Ig4 0.7 μM", "result": "not increased; also recorded: no change"}]}
{"molecule": "B2", "values": [{"measurement": "dome formation in response to a titration of ECD fragments", "setting": "HC11 cells [1]", "result": "more domes; also recorded: increasing dome formation"}]}
